Test results as given in patent US4946828A, “Novel insulin peptides” (Novo Nordisk A/S, priority 1985, dated 1990).

What was measured:
[1] = after subcutaneous administration; cited from earlier work
fasted rabbits = assay: Test for prolongation of insulin effect (hypoglycemic effect, British Pharmacopoeia 1980, A 142); assay type: in vivo, rabbit; conditions: for Glucose in percent of initial, 1 h / Glucose in percent of initial, 2 h / Glucose in percent of initial, 4 h / Glucose in percent of initial, 6 h: pH 4.5, 14.3 nmole per rabbit s.c.; for Prolongation of action: about 240 nmole/ml
Procedure: Sterile injectable solutions of the compounds of formula I for testing of the degree of prolonged action were made using 1.6% (w/v) glycerol as the isotonicum, using 0.3% (w/v) m-cresol as the preservative, […] The pH values of the solutions were adjusted sufficiently off the isoelectric point of the compounds of formula I to keep the solutions clear upon storage at 4° C. The solutions contained 240 nmole/ml of the compounds of formula I. The concentration of 240 nmole/ml was established by measurement of the absorbance at 276 nm of a more concentrated stock solution devoid of m-cresol, using the molar extinction coefficient for porcine insulin of 6100 for these derivatives (see Handbuch der Inneren Medizin, Vol. 7/Part 2A, Editor: Oberdisse, 1975, 113). […] 1 U corresponds to 5.95 nmole.
Injectable solutions containing 240 nmole/ml of the compounds of formula I stated in Table II and having the pH values and content of zinc stated therein were made.
The prolongation of the hypoglycemic effect produced by the injectable solutions of insulin was tested according to British Pharmacopoeia 1980, A 142, in fasted rabbits. Each test solution was administered subcutaneously in a dosis of 14.3 nmole per rabbit in 12 animals weighing 3-4 kg, and the course of the hypoglycemia was followed for 6 hours.

mouse = assay: Mouse blood sugar depletion test (British Pharmacopoeia 1980, A 141-A 142); assay type: in vivo; conditions: solutions without additions of zinc (zinc content 8-10 μg/ml from crystals); estimated potencies
Procedure: The potencies of insulin compounds were accessed in the mouse blood sugar depletion test (British Pharmacopoeia 1980, A 141-A 142). In order to minimize the problem of estimating potency of insulins having a timing different from the standard, insulin solutions for potency determinations were made up without additions of zinc. Solutions were made up to contain […] based on the absorbance at 276 nm. The zinc content of solutions were 8-10 μg/ml, arising from the crystalline derivatives.

Row | Substance | Glucose in percent of initial, 1 h (fasted rabbits; Zn++ 80 μg/ml) | Glucose in percent of initial, 2 h (fasted rabbits; Zn++ 80 μg/ml) | Glucose in percent of initial, 4 h (fasted rabbits; Zn++ 80 μg/ml) | Glucose in percent of initial, 6 h (fasted rabbits; Zn++ 80 μg/ml) | Potency relative to insulin, % (mouse) | other results
1 | A1,B29-di-Boc substituted insulin |  |  |  |  |  | Prolonged insulin action [1]: too slightly prolonged action to be clinically useful
2 | Arg^B27 human insulin [Arg^B27 insulin] | 45% of initial | 34% of initial | 51% of initial | 91% of initial | 87% | 
3 | Arg^B27,Lys^B30 --NH2 human insulin [Arg^B27,Lys^B30 --NH2 insulin] | 85% of initial | 83% of initial | 81% of initial | 79% of initial | 84% | Glucose in percent of initial, 1 h (fasted rabbits; Zn++ 10.9 μg/ml): 78% of initial; Glucose in percent of initial, 2 h (fasted rabbits; Zn++ 10.9 μg/ml): 73% of initial; Glucose in percent of initial, 4 h (fasted rabbits; Zn++ 10.9 μg/ml): 69% of initial; Glucose in percent of initial, 6 h (fasted rabbits; Zn++ 10.9 μg/ml): 67% of initial
4 | Arg^B27,Thr^B30 --NH2 human insulin [Arg^B27,Thr^B30 --NH2 insulin] | 88% of initial | 86% of initial | 85% of initial | 81% of initial | 92% | Prolongation of action (fasted rabbits; 3 zinc atoms per hexamer, 8 μg zinc/ml): very prolonged action; Glucose in percent of initial, 1 h (fasted rabbits; Zn++ […]): 62% of initial; Glucose in percent of initial, 2 h (fasted rabbits; Zn++ […]): 64% of initial; Glucose in percent of initial, 4 h (fasted rabbits; Zn++ […]): 66% of initial; Glucose in percent of initial, 6 h (fasted rabbits; Zn++ […]): 67% of initial
5 | Gln^A4 insulin |  |  |  |  | 79% | 
6 | Gln^A17,Arg^B27,Thr^B30 --NH2 human insulin [Gln^A17,Arg^B27,Thr^B30 --NH2 insulin] |  |  |  |  | 71% | 
7 | Gln^A17,Arg^B27human insulin [Gln^A17,Arg^B27 insulin] | 53% of initial | 47% of initial | 50% of initial | 66% of initial | 69% | 
8 | Gln^A17,Gln^B13,Thr^B30 --NH2 human insulin [Gln^A17,Gln^B13,Thr^B30 --NH2 insulin] |  |  |  |  | 49% | 
9 | Gln^A17,Lys^B30 --NH2 human insulin [Gln^A17,Lys^B30 --NH2 insulin] | 60% of initial | 56% of initial | 73% of initial | 86% of initial | 62% | 
10 | Gln^A17,Thr^B30 --NH2 human insulin [Gln^A17,Thr^B30 --NH2 insulin] | 65% of initial | 63% of initial | 68% of initial | 83% of initial | 67% | 
11 | Gln^B13,Arg^B27 human insulin [Gln^B13,Arg^B27 insulin] | 55% of initial | 46% of initial | 61% of initial | 91% of initial | 78% | 
12 | Gln^B13,Arg^B27,Thr^B30 --NH2 human insulin [Gln^B13,Arg^B27,Thr^B30 --NH2 insulin] |  |  |  |  | 62% | 
13 | Gln^B13,Gln^A17 human insulin [Gln^A17,Gln^B13 insulin] | 53% of initial | 47% of initial | 55% of initial | 82% of initial | 50% | 
14 | Gln^B13,Thr^B30 --NH2 human insulin [Gln^B13,Thr^B30 --NH2 insulin] |  |  |  |  |  | Glucose in percent of initial, 1 h (fasted rabbits; Zn++ […]): 91% of initial; Glucose in percent of initial, 2 h (fasted rabbits; Zn++ […]): 92% of initial; Glucose in percent of initial, 4 h (fasted rabbits; Zn++ […]): 92% of initial; Glucose in percent of initial, 6 h (fasted rabbits; Zn++ […]): 90% of initial
15 | Gln^B21 insulin |  |  |  |  | 96% | 
16 | Lys^B27 human insulin [Lys^B27 insulin] | 47% of initial | 40% of initial | 55% of initial | 93% of initial | 88% | 
17 | Lys^B27,Lys^B30 --NH2 human insulin [Lys^B27,Lys^B30 --NH2 insulin] |  |  |  |  | 56% | Glucose in percent of initial, 1 h (fasted rabbits; Zn++ 9.5 μg/ml): 72% of initial; Glucose in percent of initial, 2 h (fasted rabbits; Zn++ 9.5 μg/ml): 65% of initial; Glucose in percent of initial, 4 h (fasted rabbits; Zn++ 9.5 μg/ml): 65% of initial; Glucose in percent of initial, 6 h (fasted rabbits; Zn++ 9.5 μg/ml): 60% of initial
18 | Lys^B27,Thr^B30 --NH2 human insulin [Lys^B27,Thr^B30 --NH2 insulin] |  |  |  |  | 82% | Glucose in percent of initial, 1 h (fasted rabbits; Zn++ […]): 56% of initial; Glucose in percent of initial, 2 h (fasted rabbits; Zn++ […]): 55% of initial; Glucose in percent of initial, 4 h (fasted rabbits; Zn++ […]): 62% of initial; Glucose in percent of initial, 6 h (fasted rabbits; Zn++ […]): 61% of initial
19 | Lys^B30 --NH2 insulin | 74% of initial | 83% of initial | 80% of initial | 82% of initial |  | Prolongation of action (fasted rabbits; 30 zinc per hexamer, 80 μg zinc/ml): moderate prolongation of action
